The values below come from EP0061907A1, “Secondary amines, their preparation, pharmaceutical compositions containing them and their use” (BEECHAM GROUP PLC, priority 1981, dated 1982).

Holding throughout (format): in vivo
One assay deals with Female CFLP mice. The experiment in a line: Hypoglycaemic activity: blood glucose curve after subcutaneous glucose load in fasted mice. The note with it: 2 hour period after glucose 1 g/kg s.c., compared with control mice given water. Here is the method: Female CFLP mice, weighing approx. 25 g, were fasted for 24 hours prior to the study. The compounds under study were administered orally as an aqueous solution to each of 6 mice. 30 Minutes later a blood sample ([…]) was obtained from the tail for the analysis of blood glucose. Immediately after taking the blood sample, glucose (1 g/kg body weight) was administered subcutaneously to each mouse. 6 Mice were given water as a control. Blood samples were then obtained from each mouse at 30 minute intervals for 120 minutes. Compounds that produced a significant (P<0.05) reduction on blood glucose, compared with control mice given water, at any time interval, were considered active. The area under the blood glucose curve over the 2 hour period after the administration of the glucose was calculated for each compound and compared with the value for control animals.

The subject of another assay is genetically obese mice. The assay is described as follows: Anti-obesity activity: carcass lipid of genetically obese mice after daily oral dosing for 28 days. On the procedure:
The compounds were administered by oral gavage in water or carboxymethyl-cellulose suspension to genetically obese mice daily for 28 days. At the end of the time the carcass composition was determined.

In the next assay the test system is Male CFLP mice. The assay is described as follows: Platelet aggregation inhibition activity: response of blood platelet concentration to intravenous collagen in mice. The note with it: two hours before intravenous collagen. On the procedure:
Male CFLP mice (ca 20g, n=11 or 12) were dosed orally with compound or vehicle (controls) after an overnight fast. Two hours later each mouse received an intravenous dose of collagen ([…], pH 6-6.6). Exactly 30 sec. after injection of collagen, each mouse was placed in a chamber of C02 until respiration ceased. […] Each concentration was expressed as a per cent of that obtained in a tail blood sample taken immediately before injection of collagen.

A further assay deals with rat ear. The assay is described as follows: Anti-inflammatory activity: croton oil induced inflammation of the rat ear. The settings on record: topical in irritant vehicle, ear weight after 6 hours, active = significant (5% level) reduction in ear weight vs non-drug treated control. On the procedure: The method used is based on that described by G. Tonelli et al (Endocrinology, 77, 625-634, 1965). An inflammation is induced in the rat ear by the application of 50 µl of a 1% solution of croton oil in tetrahydrofuran, test compounds being dissolved in the irritant vehicle. After 6 hours the inflammation is assessed by killing the animals and weighing the ears. Topical anti-inflammatory activity of a compound is generally considered to be shown when a significant (5% level) reduction in ear weight is seen compared to non-drug treated control.

In the case of `CNCCCCCCc1ccc(CC(C)NCC(O)c2cccc(Cl)c2)cc1` (stereo not shown) [Example 26, N-(2-(4-(6-N'-Methylaminohexyl)phenyl)-1-methylethyl)-2-hydroxy-2-(3-chlorophenyl) ethanamine], the “REDUCTION IN AREA UNDER BLOOD GLUCOSE CURVE (%)” value with Female CFLP mice (2.5 µ mol/kg orally) is 53%.

With `CC(Cc1ccc(CN)cc1)NCC(O)c1ccccc1` (stereo not shown) [Example 1, N-(2-(4-Aminomethylphenyl)-1-methylethyl)-2-hydroxy-2-phenylethanamine], the “g LIPID/MOUSE TREATED” value in the assay with genetically obese mice (6.25 mg/kg p.o. daily for 28 days, control 21.52) turned out to be 17.98 g. Further, in the assay on Female CFLP mice (2.5 µ mol/kg orally), the “REDUCTION IN AREA UNDER BLOOD GLUCOSE CURVE (%)” value amounted to 29%.

With `CC(Cc1ccc(CN)cc1)NCC(O)c1cccc(Cl)c1` (stereo not shown) [Example 6, N-(2-(4-Aminomethylphenyl}-1-methylethyl)-2-hydroxy-2-(3-chlorophenyl) ethanamine], in the assay on genetically obese mice (10.9 mg/kg p.o. daily for 28 days, control 18.75), the “g LIPID/MOUSE TREATED” value is 17.38 g.

As to `CNCc1ccc(C[C@@H](C)NC[C@H](O)c2cccc(C(F)(F)F)c2)cc1` (racemic) [Example 15, (RR,SS) N-(2-(4-N'-Methylaminomethylphenyl)-1-methylethyl)-2-hydroxy-2-(3-trifluoromethylphenyl) ethanamine], the “REDUCTION IN AREA UNDER BLOOD GLUCOSE CURVE (%)” value in the assay on Female CFLP mice (2.5 µ mol/kg orally) was 19%.

Turning to `CNCc1ccc(CC(C)NCC(O)c2ccccc2)cc1` (stereo not shown) [Example 7, N-(2-(4-N'-Methylaminomethylphenyl)-1-methylethyl)-2-hydroxy-2-phenylethanamine], the “g LIPID/MOUSE TREATED” value in the assay with genetically obese mice (9.9 mg/kg p.o. daily for 28 days, control 23.13) turned out to be 20.56 g.

For `CN[C@@H](C)c1ccc(CC(C)NCC(O)c2cccc(Cl)c2)cc1` (stereo partly drawn) [Example 23, N-(2-(4-(1-(S)-N'-Methylaminoethyl)phenyl)-1-methylethyl)-2-hydroxy-2-(3-chlorophenyl)ethanamine], the “REDUCTION IN AREA UNDER BLOOD GLUCOSE CURVE (%)” value in the assay on Female CFLP mice (50 µ mol/kg orally) was 26%.

In the case of `CN[C@H](C)c1ccc(CC(C)NCC(O)c2cccc(Cl)c2)cc1` (stereo partly drawn) [Example 24, N-(2-(4-(1-(R)-N'-Methylaminoethyl)phenyl)-1-methylethyl) -2-hydroxy-2-(3-chlorophenyl)ethanamine], in the assay on Female CFLP mice (50 µ mol/kg orally), the “REDUCTION IN AREA UNDER BLOOD GLUCOSE CURVE (%)” value came to 17%.

For the molecule `CC(=O)Oc1ccccc1C(=O)O` [Aspirin, reference compound], in the assay with Male CFLP mice (600(108) µmol(mg)/kg p.o.), the “% Inhibition of re-sponse to collagen” value was determined as 29 p<0.05%.

Take `CCc1cccc(C(O)CNC(C)Cc2ccc(CNC)cc2)c1` (stereo not shown) [Example 10, N-(2-(4-N'Methylaminomethylphenyl)-1-methylethly)-2-hdroxy-2-(3-ethylphenyl) ethanamine]: the “REDUCTION IN AREA UNDER BLOOD GLUCOSE CURVE (%)” value with Female CFLP mice (100.0 µ mol/kg orally) is given as 49%.

Turning to `CNCc1ccc(CC(C)NCC(O)c2cccc(C(F)(F)F)c2)cc1` (stereo not shown) [Example 3, N-(2-(4-N'-Mcthylaminomethylphenyl)-1-methylethyl)-2-hydroxy-2-(3-trifluoromethylphenyl) ethanamine], in the assay on genetically obese mice (12.2 mg/kg p.o. daily for 28 days, control 20.98), the “g LIPID/MOUSE TREATED” value was 18.56 g. The “% Inhibition of re-sponse to collagen” value with Male CFLP mice (10 µmol/kg p.o.) stood at 25 p<0.02%.

`CNCc1ccc(C[C@@H](C)NC[C@H](O)c2cccc(Cl)c2)cc1` (racemic) [Example 16, (RR,SS) N-(2-(4-N'-Methylaminomethylphenyl)-1-methylethyl) -2-hydroxy-2-(3-chlorophenyl) ethanamine]: in the assay with genetically obese mice (11.3 mg/kg p.o. daily for 28 days, control 22.55), the “g LIPID/MOUSE TREATED” value is listed as 16.03 g. Further, the “REDUCTION IN AREA UNDER BLOOD GLUCOSE CURVE (%)” value in the assay on Female CFLP mice (2.5 µ mol/kg orally) is on record as 33%.

Turning to `CNCCCCc1ccc(CC(C)NCC(O)c2cccc(Cl)c2)cc1` (stereo not shown) [Example 27, N-(2-(4-(4-N'-Methylaminobutyl)phenyl)-1-methylethyl)-2-hydroxy-2-(3-chlorophenyl) ethanamine], in the assay on Female CFLP mice (2.5 µ mol/kg orally), the “REDUCTION IN AREA UNDER BLOOD GLUCOSE CURVE (%)” value was determined as 10%.

Take `CNC(C)Cc1ccc(CC(C)NCC(O)c2cccc(Cl)c2)cc1` (stereo not shown) [Example 25, N-(2-(4-(2-N'-Methylaminopropyl)phenyl)-1-methylethyl) -2-hydroxy-2-(3-chlorophenyl)ethanamine]: the “REDUCTION IN AREA UNDER BLOOD GLUCOSE CURVE (%)” value in the assay on Female CFLP mice (2.5 µ mol/kg orally) turned out to be 41%.

As to `CNCc1ccc(CC(C)NCC(O)c2cccc(F)c2)cc1` (stereo not shown) [Example 9, N-(2-(4-N'-Methylaminomethylphenyl)-1-methylethyl)-2-hydroxy-2-(3-fluorophenyl) ethanamine], in the assay with genetically obese mice (10.8 mg/kg p.o. daily for 28 days, control 22.95), the “g LIPID/MOUSE TREATED” value was determined as 20.63 g.

For the molecule `CC(Cc1ccc(CN)cc1)NCC(O)c1cccc(C(F)(F)F)c1` (stereo not shown) [Example 2, N-(2-(4-Aminomethylphenyl)-1-methylethyl)-2-hydroxy-2-(3-trifluoromethylphenyl) ethanamine], the “g LIPID/MOUSE TREATED” value with genetically obese mice (11.8 mg/kg p.o. daily for 28 days, control 25.09) is given as 20.87 g. Besides, the “REDUCTION IN AREA UNDER BLOOD GLUCOSE CURVE (%)” value in the assay with Female CFLP mice (2.5 µ mol/kg orally) is 24%. Besides, the ACTIVITY result with rat ear (0.5 mg/rat ear) is recorded as “Active”. Besides, the “% Inhibition of re-sponse to collagen” value with Male CFLP mice (10 µmol/kg p.o.) was 29 p<0.01%.

With `CNCc1ccc(CC(C)NCC(O)c2cccc(Br)c2)cc1` (stereo not shown) [Example 12, N-(2-(4-N'-Methylaminomethylphenyl)-1-methylethyl)-2-hydroxy-2-(3-bromophenyl) ethanamine], the “g LIPID/MOUSE TREATED” value in the assay on genetically obese mice (12.5 mg/kg p.o. daily for 28 days, control 24.60) stood at 20.38 g. Besides, the “REDUCTION IN AREA UNDER BLOOD GLUCOSE CURVE (%)” value in the assay on Female CFLP mice (2.5 µ mol/kg orally) worked out at 37%.

`CNCCCc1ccc(CC(C)NCC(O)c2cccc(C(F)(F)F)c2)cc1` (stereo not shown) [Example 14, N-(2-(4-(3-N'-Methylaminopropyl)phenyl)-1-methylethyl)-2-hydroxy-2-(3-trifluoromethylphenyl) ethanamine]: the “REDUCTION IN AREA UNDER BLOOD GLUCOSE CURVE (%)” value with Female CFLP mice (12.5 µ mol/kg orally) was found to be 46%.

On to `CC(Cc1ccc(CN(C)C)cc1)NCC(O)c1cccc(C(F)(F)F)c1` (stereo not shown) [Example 4, N-(2-(4-N'N'-Dimethylaminomethylphenyl)-1-methylethyl)-2-hydroxy-2-(3-trifluoromethylphenyl) ethanamine], for which the “REDUCTION IN AREA UNDER BLOOD GLUCOSE CURVE (%)” value in the assay with Female CFLP mice (12.5 µ mol/kg orally) was 31%.

With `CNCc1ccc(CC(C)NCC(O)c2cccc(Cl)c2)cc1` (stereo not shown) [Example 8, N-(2-(4-N'-Methylaminomethylphenyl)-1-methylethyl)-2-hydroxy-2-(3-chlorophenyl) ethanamine], in the assay on Female CFLP mice (12.5 µ mol/kg orally), the “REDUCTION IN AREA UNDER BLOOD GLUCOSE CURVE (%)” value was determined as 52%. Also, the ACTIVITY result with rat ear (2 mg/rat ear) was “Active”. Also, the “% Inhibition of re-sponse to collagen” value in the assay on Male CFLP mice (10 µmol/kg p.o.) turned out to be 37 p<0.001%.
